The values below come from ChEMBL document CHEMBL1201862, “PubChem BioAssay data set” (2004).

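A five-concentration, 48-hour dose response in 96-well plates underlies each endpoint, interpolated linearly between surrounding concentrations. GI50 marks 50% less growth.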 Activity calls are given as the source filed them. Rule as the data show it: active = GI50 up to about 1.1 µM and inactive = higher.

Some test systems named below: NCI-H23; SF-539; HCT-15; U-251; Malme-3M; KM12; MDA-N; M14; OVCAR-5; OVCAR-4; NCI-H460; SNB-19; HCC 2998; UO-31; BT-549; CAKI-1; HL-60; HOP-92; ACHN.
Holding throughout (experiment): NCI anticancer screen, dose series, 48 h

For `NS(=O)(=O)c1cc(Cl)c(NC(=S)NC(=O)Nc2ccc(Cl)c(Cl)c2)c(Cl)c1`, the GI50 with NCI-H23 was 31.6 µM (inactive); in the experiment with SF-539, 28.6 µM (inactive); with HCT-15, 40.9 µM; in the experiment on U-251, 37.2 µM (inactive); with Malme-3M, 68.1 µM (inactive); in the experiment with KM12, 34.7 µM (inactive). In addition, the GI50 in the experiment with MDA-N is 33.6 µM (inactive); in the experiment with M14, 27.5 µM (inactive); with OVCAR-5, 80.5 µM (inactive); with OVCAR-4, 47.4 µM (inactive); with NCI-H460, 30.2 µM (inactive); in the experiment with SNB-19 it was 42.9 µM (inactive). For the same molecule, the GI50 was 59.2 µM (inactive) in the experiment on HCC 2998; 44.1 µM (inactive) in the experiment on UO-31; 55.2 µM (inactive) in the experiment with BT-549; 76.4 µM (inactive) in the experiment with CAKI-1; 21.8 µM (inactive) in the experiment on HL-60; 55.7 µM (inactive) in the experiment with HOP-92. The GI50 in the experiment on ACHN was 34.1 µM (inactive).
Consider `Cc1cc(S(=O)(=O)Nc2nc(Nc3ccccc3)n[nH]2)c(SCC(=O)O)cc1Cl`, for which the GI50 in the experiment on NCI-H23 is > 100 µM (inactive); in the experiment on SF-539, > 100 µM (inactive); in the experiment on HCT-15, > 100 µM; with U-251, > 100 µM (inactive); in the experiment with Malme-3M, > 100 µM (inactive); in the experiment with KM12, > 100 µM (inactive). The GI50 in the experiment with MDA-N, in the experiment with M14, in the experiment on OVCAR-5, in the experiment on OVCAR-4, with NCI-H460 and in the experiment with SNB-19 was > 100 µM (inactive) each time. The GI50 in the experiment on HCC 2998, with UO-31, with BT-549, in the experiment with CAKI-1, in the experiment on HL-60 and in the experiment on HOP-92 was > 100 µM (inactive) in each case. Also, the GI50 in the experiment with ACHN was > 100 µM (inactive).
Turning to `O=C1C(=C(C(=O)c2ccccc2)C(=O)c2ccccc2)OC(c2ccccc2)=C1C(=O)c1ccccc1`, the GI50 in the experiment with NCI-H23 is 6.1 µM (inactive); with SF-539 it was 5.78 µM (inactive); with HCT-15, 3.36 µM; in the experiment on U-251, 4.46 µM (inactive); with Malme-3M, 12.6 µM (inactive); with KM12, 5.5 µM (inactive). Moreover, the GI50 with MDA-N was 6.47 µM (inactive); in the experiment on M14, 7.41 µM (inactive); in the experiment on OVCAR-5 it was 16.9 µM (inactive); with OVCAR-4 it was 2.79 µM (inactive); with NCI-H460, 3.02 µM (inactive); in the experiment on SNB-19, 10.2 µM (inactive). In addition, the GI50 in the experiment with HCC 2998 was 9.77 µM (inactive); in the experiment with UO-31, 6.79 µM (inactive); in the experiment with BT-549, 3.01 µM (inactive); with CAKI-1, 0.597 µM (active); with HL-60 it was 6.84 µM (inactive); in the experiment on HOP-92, 7.19 µM (inactive). Also, the GI50 in the experiment on ACHN was 4.88 µM (inactive).
Take `Cc1ccc2nc(CN3CCCC(O)C3)cc(=O)n2c1` (stereo not drawn): the GI50 is > 100 µM (inactive) in the experiment on NCI-H23; > 100 µM (inactive) in the experiment with SF-539; > 100 µM in the experiment with HCT-15; > 100 µM (inactive) in the experiment with U-251; > 100 µM (inactive) in the experiment on Malme-3M; > 100 µM (inactive) with KM12. Moreover, the GI50 with MDA-N, in the experiment with M14, in the experiment with OVCAR-5, with OVCAR-4, in the experiment on NCI-H460 and in the experiment with SNB-19 was > 100 µM (inactive) in each case. The GI50 in the experiment with HCC 2998, in the experiment with UO-31, in the experiment with BT-549, with CAKI-1, with HL-60 and with HOP-92 was > 100 µM (inactive) in each case. In addition, the GI50 in the experiment on ACHN is > 100 µM (inactive).
For the molecule `N=C(N)CCNC(=O)C1CCC(N)=N1` (stereo not drawn), the GI50 in the experiment on NCI-H23 is 16.1 µM (inactive); with SF-539, 11.6 µM (inactive); in the experiment on HCT-15, 37.9 µM; with U-251 it was 7.89 µM (inactive); in the experiment on Malme-3M, 7.5 µM (inactive); with KM12, 6.79 µM (inactive). For the same molecule, the GI50 in the experiment with MDA-N was 21.4 µM (inactive); with M14 it was 24.7 µM (inactive); in the experiment with OVCAR-5, 19.1 µM (inactive); in the experiment on OVCAR-4 it was 9.48 µM (inactive); with NCI-H460, 7.55 µM (inactive); in the experiment with SNB-19 it was 6.76 µM (inactive). The GI50 in the experiment with HCC 2998 was 4.95 µM (inactive); in the experiment on UO-31, 18.2 µM (inactive); in the experiment on BT-549, 43.4 µM (inactive); in the experiment on CAKI-1, 10.6 µM (inactive); with HL-60 it was 37.5 µM (inactive); with HOP-92, 11.6 µM (inactive). Also, the GI50 in the experiment on ACHN was 13.8 µM (inactive).
As for `CC(=O)C(I(OS(=O)(=O)c1ccc(C)cc1)c1ccccc1)=P(c1ccccc1)(c1ccccc1)c1ccccc1`, the GI50 is 18.1 µM (inactive) with NCI-H23; 18.2 µM (inactive) in the experiment with SF-539; > 100 µM in the experiment with HCT-15; 29.2 µM (inactive) with U-251; 14.8 µM (inactive) in the experiment on Malme-3M; 16.2 µM (inactive) in the experiment with KM12. Besides, the GI50 is 15 µM (inactive) in the experiment on MDA-N; 22.1 µM (inactive) in the experiment with M14; 23 µM (inactive) in the experiment on OVCAR-5; 14.8 µM (inactive) in the experiment on OVCAR-4; 58.5 µM (inactive) in the experiment on NCI-H460; 38.5 µM (inactive) in the experiment with SNB-19. The GI50 with HCC 2998 was 18 µM (inactive); in the experiment on UO-31 it was > 100 µM (inactive); with BT-549, 18.9 µM (inactive); with CAKI-1 it was > 100 µM (inactive); in the experiment with HL-60, 30.3 µM (inactive); with HOP-92, 10.5 µM (inactive). The GI50 in the experiment on ACHN was > 100 µM (inactive).
Regarding `COC(=O)c1cc(C(=CCC[C@H]2CC[C@@]3(C)C(CCC4C3CC[C@@]3(C)C4CC[C@@H]3C(C)CCCC(C)C)C2)c2cc(Cl)c(OC(=O)c3ccccc3)c(C(=O)OC)c2)cc(Cl)c1OC(=O)c1ccccc1` (stereo partly drawn), the GI50 was > 10 µM (inactive) in the experiment on NCI-H23; > 10 µM (inactive) in the experiment on SF-539; > 10 µM in the experiment with HCT-15; > 10 µM (inactive) with U-251; > 10 µM (inactive) in the experiment on Malme-3M; > 10 µM (inactive) in the experiment with KM12. The GI50 in the experiment on MDA-N, with M14, with OVCAR-5, in the experiment with OVCAR-4, with NCI-H460 and in the experiment with SNB-19 was > 10 µM (inactive) each time. The GI50 with HCC 2998, in the experiment on UO-31, with BT-549, with CAKI-1, with HL-60 and in the experiment with HOP-92 was > 10 µM (inactive) throughout. The GI50 in the experiment with ACHN is > 10 µM (inactive).
